In patent publication US10189836B2, “Therapeutic compounds, compositions and methods of use thereof” (Genentech, Inc., priority 2015, dated 2019):

How the values were obtained:
[1] = target: isolated recombinant JAK2 kinase domain (Homo sapiens (Human), UniProt O60674); assay: JAK2 enzyme assay (Caliper LabChip, Ki); type: biochemical; details: isolated recombinant JAK2 kinase domain, 0.2 nM enzyme, ATP 25 μM
[2] = target: isolated recombinant JAK1 kinase domain (Homo sapiens (Human), UniProt P23458); assay: JAK1 enzyme assay (Caliper LabChip, Ki); type: biochemical; details: isolated recombinant JAK1 kinase domain, 1.5 nM enzyme, ATP 25 μM
isolated recombinant JAK1 kinase domain, sequence (P23458 875-1153): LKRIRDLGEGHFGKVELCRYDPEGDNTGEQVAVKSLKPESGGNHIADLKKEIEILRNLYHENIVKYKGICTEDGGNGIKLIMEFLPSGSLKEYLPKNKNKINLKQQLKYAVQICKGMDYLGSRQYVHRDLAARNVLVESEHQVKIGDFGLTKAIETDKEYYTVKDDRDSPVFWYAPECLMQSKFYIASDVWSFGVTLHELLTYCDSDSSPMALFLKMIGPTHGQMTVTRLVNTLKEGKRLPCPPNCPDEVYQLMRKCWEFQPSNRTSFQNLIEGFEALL

isolated recombinant JAK2 kinase domain, sequence (O60674 849-1124): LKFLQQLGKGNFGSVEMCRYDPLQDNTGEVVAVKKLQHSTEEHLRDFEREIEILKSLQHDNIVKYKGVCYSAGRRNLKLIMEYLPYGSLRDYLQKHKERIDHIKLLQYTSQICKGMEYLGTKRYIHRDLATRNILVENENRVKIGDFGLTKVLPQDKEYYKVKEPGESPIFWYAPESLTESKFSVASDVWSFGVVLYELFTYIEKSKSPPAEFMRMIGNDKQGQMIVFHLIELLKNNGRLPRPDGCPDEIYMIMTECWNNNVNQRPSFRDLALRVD

SMILES | Ki [1] | Ki [2]
CN1CCN(C(=O)Cn2cc(Nc3nc4c(N5CC6CCC(C5)N6S(=O)(=O)c5ccc(Cl)cc5)cccn4n3)cn2)CC1 [Example 93, 2-[4-[[8-[8-(4-chlorophenyl)sulfonyl-3,8-diazabicyclo[3.2.1]octan-3-yl]-[1,2,4]triazolo[1,5-a]pyridin-2-yl]amino]pyrazol-1-yl]-1-(4-methylpiperazin-1-yl)ethanone] | 0.8 nM | 0.3 nM
O=C(Cn1cc(Nc2nc3c(N4CC5CCC(C4)N5C(=O)N4CC(C(F)(F)F)C4)cccn3n2)cn1)N1CCN(C2CSC2)CC1 [Example 94, 1-[4-(thietan-3-yl)piperazin-1-yl]-2-[4-[[8-[8-[3-(trifluoromethyl)azetidine-1-carbonyl]-3,8-diazabicyclo[3.2.1]octan-3-yl]-[1,2,4]triazolo[1,5-a]pyridin-2-yl]amino]pyrazol-1-yl]ethanone] | 0.4 nM | 0.6 nM
CN1CCN(C(=O)Cn2cc(Nc3nc4c(N5C[C@H]6CC[C@@H](C5)[C@H]6OCc5cnn(C)c5)cccn4n3)cn2)CC1 [Example 95, 1-(4-methylpiperazin-1-yl)-2-[4-[[8-[(1S,5R)-8-[(1-methylpyrazol-4-yl)methoxy]-3-azabicyclo[3.2.1]octan-3-yl]-[1,2,4]triazolo[1,5-a]pyridin-2-yl]amino]pyrazol-1-yl]ethanone] | 5 nM | 2.3 nM
CN1CCN(C(=O)Cn2cc(Nc3nc4c(N5CC6CCCC(C5)N6C(=O)C5CSC5)cccn4n3)cn2)CC1 [Example 96, 1-(4-methylpiperazin-1-yl)-2-[4-[[8-[9-(thietane-3-carbonyl)-3,9-diazabicyclo[3.3.1]nonan-3-yl]-[1,2,4]triazolo[1,5-a]pyridin-2-yl]amino]pyrazol-1-yl]ethanone] | 0.5 nM | 0.4 nM
CN1CCN(C(=O)Cn2cc(Nc3nc4c(N5CC6CCCC(C5)N6C(=O)CC5CC(F)(F)C5)cccn4n3)cn2)CC1 [Example 97, 2-(3,3-difluorocyclobutyl)-1-[3-[2-[[1-[2-(4-methylpiperazin-1-yl)-2-oxo-ethyl]pyrazol-4-yl]amino]-[1,2,4]triazolo[1,5-a]pyridin-8-yl]-3,9-diazabicyclo[3.3.1]nonan-9-yl]ethanone] | 0.5 nM | 0.6 nM
CN1CCN(C(=O)Cn2cc(Nc3nc4c(N5CC6CCC(C5)N6CC(F)(F)F)cccn4n3)cn2)CC1 [Example 98, 1-(4-methylpiperazin-1-yl)-2-[4-[[8-[8-(2,2,2-trifluoroethyl)-3,8-diazabicyclo[3.2.1]octan-3-yl]-[1,2,4]triazolo[1,5-a]pyridin-2-yl]amino]pyrazol-1-yl]ethanone] | 4.1 nM | 2.1 nM
CSc1ccc(C(=O)N2C3CCC2CN(c2cccn4nc(Nc5cnn(CC(=O)N6CCN(C)CC6)c5)nc24)C3)cc1 [Example 99, 1-(4-methylpiperazin-1-yl)-2-[4-[[8-[8-(4-methylsulfanylbenzoyl)-3,8-diazabicyclo[3.2.1]octan-3-yl]-[1,2,4]triazolo[1,5-a]pyridin-2-yl]amino]pyrazol-1-yl]ethanone] | 5.4 nM | 1.6 nM
CSc1cccc(C(=O)N2C3CCC2CN(c2cccn4nc(Nc5cnn(CC(=O)N6CCN(C)CC6)c5)nc24)C3)c1 [Example 100, 1-(4-methylpiperazin-1-yl)-2-[4-[[8-[8-(3-methylsulfanylbenzoyl)-3,8-diazabicyclo[3.2.1]octan-3-yl]-[1,2,4]triazolo[1,5-a]pyridin-2-yl]amino]pyrazol-1-yl]ethanone] | 4.2 nM | 1.2 nM
CN1CCN(C(=O)Cn2cc(Nc3nc4c(N5CC6CCC(C5)N6Cc5cnc(CC(F)(F)F)s5)cccn4n3)cn2)CC1 [Example 101, 1-(4-methylpiperazin-1-yl)-2-[4-[[8-[8-[[2-(2,2,2-trifluoroethyl)thiazol-5-yl]methyl]-3,8-diazabicyclo[3.2.1]octan-3-yl]-[1,2,4]triazolo[1,5-a]pyridin-2-yl]amino]pyrazol-1-yl]ethanone] | 10.3 nM | 2.9 nM
CN1CCN(C(=O)Cn2cc(Nc3nc4c(N5CC6CCC(C5)N6C(=O)CC(N)C(F)(F)F)cccn4n3)cn2)CC1 (centres unmarked) [Example 102, 3-amino-4,4,4-trifluoro-1-[3-[2-[[1-[2-(4-methylpiperazin-1-yl)-2-oxo-ethyl]pyrazol-4-yl]amino]-[1,2,4]triazolo[1,5-a]pyridin-8-yl]-3,8-diazabicyclo[3.2.1]octan-8-yl]butan-1-one] | 7.9 nM | 3.4 nM
CC(C(=O)N1CCN(C)CC1)n1cc(Nc2nc3c(N4CC5CCC(C4)N5C(=O)CCC(F)(F)F)cccn3n2)cn1 (centres unmarked) [Example 103, 4,4,4-trifluoro-1-[3-[2-[[1-[1-methyl-2-(4-methylpiperazin-1-yl)-2-oxo-ethyl]pyrazol-4-yl]amino]-[1,2,4]triazolo[1,5-a]pyridin-8-yl]-3,8-diazabicyclo[3.2.1]octan-8-yl]butan-1-one] | 1.7 nM | 1.5 nM
CC(C(=O)N1CCN(C)CC1)n1cc(Nc2nc3c(N4CC5CCC(C4)N5C(=O)CCC(F)(F)F)cccn3n2)cn1 (centres unmarked) [Example 104, 4,4,4-trifluoro-1-[3-[2-[[1-[1-methyl-2-(4-methylpiperazin-1-yl)-2-oxo-ethyl]pyrazol-4-yl]amino]-[1,2,4]triazolo[1,5-a]pyridin-8-yl]-3,8-diazabicyclo[3.2.1]octan-8-yl]butan-1-one] | 0.8 nM | 1.7 nM
CC(C(=O)N1CCN(C)CC1)n1cc(Nc2nc3c(N4CC5CCCC(C4)N5C(=O)CCC(F)(F)F)cccn3n2)cn1 (centres unmarked) [Example 105, 4,4,4-trifluoro-1-[3-[2-[[1-[1-methyl-2-(4-methylpiperazin-1-yl)-2-oxo-ethyl]pyrazol-4-yl]amino]-[1,2,4]triazolo[1,5-a]pyridin-8-yl]-3,9-diazabicyclo[3.3.1]nonan-9-yl]butan-1-one] | 0.8 nM | 1 nM
CC(C(=O)N1CCN(C)CC1)n1cc(Nc2nc3c(N4CC5CCCC(C4)N5C(=O)CCC(F)(F)F)cccn3n2)cn1 (centres unmarked) [Example 106, 4,4,4-trifluoro-1-[3-[2-[[1-[1-methyl-2-(4-methylpiperazin-1-yl)-2-oxo-ethyl]pyrazol-4-yl]amino]-[1,2,4]triazolo[1,5-a]pyridin-8-yl]-3,9-diazabicyclo[3.3.1]nonan-9-yl]butan-1-one] | 0.7 nM | 1.6 nM
CSc1ccc(S(=O)(=O)N2C3CCC2CN(c2cccn4nc(Nc5cnn(CC(=O)N6CCN(C)CC6)c5)nc24)C3)cc1 [Example 107, 1-(4-methylpiperazin-1-yl)-2-[4-[[8-[8-(4-methylsulfanylphenyl)-sulfonyl-3,8-diazabicyclo[3.2.1]octan-3-yl]-[1,2,4]triazolo[1,5-a]pyridin-2-yl]amino]pyrazol-1-yl]ethanone] | 0.8 nM | 0.4 nM
CN1CCN(C(=O)Cn2cc(Nc3nc4c(N5CC6CCC(C5)N6S(=O)(=O)Cc5ccccc5)cccn4n3)cn2)CC1 [Example 108, 2-[4-[[8-(8-benzylsulfonyl-3,8-diazabicyclo[3.2.1]octan-3-yl)-[1,2,4]triazolo[1,5-a]pyridin-2-yl]amino]pyrazol-1-yl]-1-(4-methylpiperazin-1-yl)ethanone] | 2.7 nM | 1 nM
